Assay results: patent US10870627B2, “Salt of quinazoline derivative, preparation method therefor and application thereof” (SHANGHAI PHARMACEUTICALS HOLDING CO., LTD., priority 2016, dated 2020)

Experiments:
[1] = Solid-state stability test; format: physicochemical
Description: An appropriate amount of the drugs were placed in the surface dish, spread to a thickness of 3-5 mm, and exposed in high temperature, high temperature and high humidity, illumination and oxidation conditions for 10 days respectively, and the solid-state characterization was performed. The purity and the number of impurities 0.05%) of the samples for testing were determined by HPLC, and compared with the samples on day 0. The exposure conditions are:
High temperature (an oven with T=60° C.);
Illumination (25° C., a 4500±500 lx light incubator);
Oxidation (25° C., a closed container containing urea hydrogen peroxide).

[2] = Solubility determined by visual inspection; format: physicochemical; conditions: room temperature
Description: The solubility was determined as follows: a certain amount of the sample was weighed and the solvent was added thereto in portions with stirring or ultrasonication to accelerate dissolution; the amount of the consumed solvent was recorded once the sample was dissolved. […] A certain volume of the solution was taken, followed by filtration, concentration, dissolved with a certain volume of other suitable solvents and subjected to HPLC measurement to obtain accurate data of the solubility.

[3] = Dynamic vapor sorption (DVS), isothermal absorption analysis; format: physicochemical
Description: In the present invention, according to the common knowledge in the art, the amount of water absorption obtained from the dynamic vapor sorption (DVS) pattern is expressed in percentage by weight.
The isothermal absorption analysis (DVS) data was collected from TA Instruments Q5000 TGA. The software for instrument control was Thermal Advantage and software for analysis was Universal Analysis. 1-10 mg of the sample was generally placed in a platinum crucible, and the weight change of the sample during the relative humidity changing from 20% to 80% was recorded by the TA software. Depending on the specifics of the sample, different steps of sample adsorption and desorption were also involved.

[4] = Comparison of absorption in rats after intragastric administration of free base and salt (plasma pharmacokinetics); format: in vivo, SD rats
Description: The blood sample was centrifuged at 8000 RPM for 5 minutes, followed by the isolation of the upper plasma. […] 200 μL of the supernatant was taken and centrifuged again for 10 minutes. 50 μL of the supernatant was injected in a 96-well plate. The plasma drug concentration was determined by LC/MS/MS, and the corresponding pharmacokinetic parameters were calculated.

[5] = Solution stability test; format: physicochemical
Description: About 15 mg of the sample was weighed accurately, dissolved with 25 mL of the test solvent (10% aqueous acetone solution, pH=4.0 B-R buffer solution, SGF, SIF) via ultrasound for 20 minutes. The solution was divided into four portions and placed in the clear glass vials, followed by sealing. The samples were exposed in different environments and sampled on day 0 and day 5. The purity of each sample was determined by HPLC, and the number of impurities greater than 0.05% was calculated and compared with the samples on day 0. The exposure environments are:
Room temperature and light-proof test, 25° C.; […]
Illumination experiment (4500±500 lx), 25° C.;
Oxidation experiment (3% v/v hydrogen peroxide), 25° C.

[6] = 10 d, High temperature (oven, T=60° C.)
[7] = 10 d, High temperature and high humidity (40° C., 75% relative humidity)
[8] = 10 d, Illumination (25° C., 4500±500 lx)
[9] = 10 d, Oxidation (25° C., closed container with urea hydrogen peroxide)
[10] = SD rats, 20 μmol/kg, intragastric administration, plasma
[11] = 10% aqueous acetone solution, 5 d, High temperature
[12] = 10% aqueous acetone solution, 5 d, High temperature and high humidity
[13] = 10% aqueous acetone solution, 5 d, Oxidation (3% v/v hydrogen peroxide, 25° C.)
[14] = B-R Buffer solution (pH=4.0), 5 d, High temperature
[15] = B-R Buffer solution (pH=4.0), 5 d, High temperature and high humidity
[16] = B-R Buffer solution (pH=4.0), 5 d, Illumination (4500±500 lx, 25° C.)
[17] = B-R Buffer solution (pH=4.0), 5 d, Oxidation (3% v/v hydrogen peroxide, 25° C.)
[18] = SGF, 5 d, High temperature and high humidity
[19] = SIF, 5 d, High temperature and high humidity
[20] = SIF, 5 d, Illumination (4500±500 lx, 25° C.)
[21] = SIF, 5 d, Oxidation (3% v/v hydrogen peroxide, 25° C.)

Compound `C=C(F)C(=O)Nc1cc2c(Nc3ccc(F)c(Cl)c3)ncnc2cc1OCCCN1CCOCC1.O=S(=O)(O)CCS(=O)(=O)O` has a Number of impurities ([1]; 0 d) of 2, a Purity ([1]; 0 d) of 99.0% and a Number of impurities [1, 6] of 2. It also gave a Purity [1, 6] of 99.0%, a Number of impurities [1, 7] of 2 and a Purity [1, 7] of 99.0%. It also gave a Number of impurities [1, 8] of 2, a Purity [1, 8] of 99.0% and a Number of impurities [1, 9] of 2. For the same compound, the Purity [1, 9] was 99.0%, the “visual solubility in water” value [2] was 1000 to 2000 µg/mL and the “hygroscopicity, in words” value [3] was “not easy to absorb moisture”. The “AUC (0-t)” value [4, 10] was 195.56 ± 84.51 µM·min, the “MRT (0-T)” value [4, 10] was 5.3317 ± 0.9937 h and the Tmax [4, 10] was 1.333 ± 0.2887 h. The t1/2 [4, 10] was 3.744 ± 0.9165 h, the Cmax ([4]; SD rats, 20 μmol/kg, intragastric administration, plasma, listed as monoethanedisulfonate) was 390 ± 160 nM and the “AUC (0-t) and Cmax, comparison in words” value ([4]; rats, oral, same dose, free base and 6 salts) was “relatively low”. The Number of impurities ([5]; 10% aqueous acetone solution, 0 d, impurities greater than 0.05%) was 1, the Number of impurities [5, 11] was 1 and the Purity [5, 11] was 99.0%. It also gave a Number of impurities [5, 12] of 3, a Purity [5, 12] of 98.1% and a Number of impurities ([5]; 10% aqueous acetone solution, 5 d, Illumination (4500±500 lx, 25° C.)) of 1. For the same compound, the Number of impurities [5, 13] was 7, the Purity [5, 13] was 70.8% and the Purity ([5]; B-R Buffer solution (pH=4.0), 0 d) was 99.0%. For the same compound, the Number of impurities ([5]; B-R Buffer solution (pH=4.0), 0 d, impurities greater than 0.05%) was 1, the Number of impurities [5, 14] was 1 and the Purity [5, 14] was 99.0%. For the same compound, the Number of impurities [5, 15] was 3, the Purity [5, 15] was 97.7% and the Number of impurities [5, 16] was 1. For the same compound, the Purity [5, 16] was 99.0%, the Number of impurities [5, 17] was 15 and the Purity [5, 17] was 44.0%. It also gave a Purity ([5]; SGF, 0 d) of 99.0%, a Number of impurities ([5]; SGF, 0 d, impurities greater than 0.05%) of 1 and a Number of impurities ([5]; SGF, 5 d, High temperature) of 2. It also gave a Number of impurities [5, 18] of 2, a Purity [5, 18] of 94.5% and a Number of impurities ([5]; SGF, 5 d, Illumination (4500±500 lx, 25° C.)) of 2. The Number of impurities ([5]; SGF, 5 d, Oxidation (3% v/v hydrogen peroxide, 25° C.)) was 3, the Purity ([5]; SIF, 0 d) was 74.8% and the Number of impurities ([5]; SIF, 0 d, impurities greater than 0.05%) was 2. For the same compound, the Number of impurities ([5]; SIF, 5 d, High temperature) was 1, the Purity ([5]; SIF, 5 d, High temperature) was 50.0% and the Number of impurities [5, 19] was 6. It also gave a Purity [5, 19] of 36.5%, a Number of impurities [5, 20] of 13 and a Purity [5, 20] of 25.2%. For the same compound, the Number of impurities [5, 21] was 7 and the Purity [5, 21] was 30.8%.
